Data: the supplement of paper PMC10307832

Key:
Experiment in all cases: relative viability (nuclei count vs DMSO), 5 days (fraction); higher = more cells survive
[1] = compound: CC1=CC(=NN1)NC2=CC(=NC(=N2)/C=C/C3=CC=CC=C3)N4CCN(CC4)C
Procedure, shortened: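 Hoechst staining, done together with fixation and permeabilisation, marked nuclei for 4× imaging and MetaXpress counting. This followed 5 days without medium change after lung cancer cell lines, kept overnight at 37 °C in 1536-well plates, were pinned with five library-drug doses (not always all listed) spaced by √10 on vehicle-anchored plates. Viability is the ratio of treated-well to vehicle-well nuclei, expressed as a median across plates. Plates passed only at control CV below 25% with at least one doubling.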

Bortezomib + Dasatinib = compound: CC(C)C[C@H](NC(=O)[C@H](Cc1ccccc1)NC(=O)c1cnccn1)B(O)O [Bortezomib] + Cc1nc(Nc2ncc(C(=O)Nc3c(C)cccc3Cl)s2)cc(N2CCN(CCO)CC2)n1 [Dasatinib] (partner 0.075 µM)
Procedure, shortened: (§1)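 Nuclei were stained with Hoechst during a one-step fixation (final 0.05% Triton X-100, 1% formaldehyde, 1 ug/ml Hoechst) carried out 5 days after dosing, then counted on 4× images. The cells, lung cancer lines in 1536-well plates, had been dosed by pin tool the day after seeding with one drug alone or a fixed anchor-drug dose plus five library-drug doses (not always all listed) in √10 steps. Relative viability is the nuclei count in treated wells divided by that in vehicle wells, and each value is the median of duplicate plates.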

[2] = compound: CC1=CC(=NN1)NC2=CC(=NC(=N2)/C=C/C3=CC=CC=C3)N4CCN(CC4)C + CC(=O)c1c(C)c2cnc(Nc3ccc(N4CCNCC4)cn3)nc2n(C2CCCC2)c1=O [Palbociclib] (partner 0.5 µM)
Procedure, shortened: as §1

[3] = compound: CC1=CC(=NN1)NC2=CC(=NC(=N2)/C=C/C3=CC=CC=C3)N4CCN(CC4)C + Nc1nc2[nH]cc(CCc3ccc(C(=O)N[C@@H](CCC(=O)O)C(=O)O)cc3)c2c(=O)[nH]1 [Pemetrexed] (partner 0.2 µM)
Procedure, shortened: as §1

| Cell Line | relative viability ([1]; 0.08 µM) | relative viability ([1]; 0.253 µM) | relative viability ([1]; 0.8 µM) | relative viability ([1]; 2.53 µM) | relative viability ([1]; 8 µM) | relative viability (Bortezomib + Dasatinib; first compound 0.0002 µM) | relative viability (Bortezomib + Dasatinib; first compound 0.000632 µM) | relative viability (Bortezomib + Dasatinib; first compound 0.002 µM) | relative viability (Bortezomib + Dasatinib; first compound 0.006325 µM) | relative viability (Bortezomib + Dasatinib; first compound 0.02 µM) | relative viability ([2]; first compound 0.08 µM) | relative viability ([2]; first compound 0.253 µM) | relative viability ([2]; first compound 0.8 µM) | relative viability ([2]; first compound 2.53 µM) | relative viability ([2]; first compound 8 µM) | relative viability ([3]; first compound 0.08 µM) | relative viability ([3]; first compound 0.253 µM) | relative viability ([3]; first compound 0.8 µM) | relative viability ([3]; first compound 2.53 µM) | relative viability ([3]; first compound 8 µM) |
| --- | --- | --- | --- | --- | --- | --- | --- | --- | --- | --- | --- | --- | --- | --- | --- | --- | --- | --- | --- | --- |
| LK-2 | 1.04 | 1.02 | 0.809 | 0.47 | 0.127 | 0.287 | 0.304 | 0.203 | 0.114 | 0.138 | 0.61 | 0.691 | 0.547 | 0.33 | 0.0792 | 0.199 | 0.288 | 0.306 | 0.217 | 0.0825 |
| LOU-NH91 | 0.928 | 1.08 | 0.991 | 0.806 | 0.424 | 0.539 | 0.529 | 0.519 | 0.271 | 0.226 | 0.55 | 0.516 | 0.5 | 0.56 | 0.407 | 0.383 | 0.389 | 0.391 | 0.394 | 0.361 |
| LU99A | 1.02 | 0.883 | 0.786 | 0.426 | 0.269 | 0.521 | 0.381 | 0.655 | 0.433 | 0.174 | 0.413 | 0.461 | 0.393 | 0.299 | 0.146 | 0.187 | 0.2 | 0.199 | 0.202 | 0.173 |
| LXF-289 | 0.993 | 1.02 | 0.964 | 0.863 | 0.435 | 0.374 | 0.151 | 0.227 | 0.0474 | 0.0368 | 0.632 | 0.63 | 0.602 | 0.568 | 0.304 | 0.872 | 0.874 | 0.895 | 0.615 | 0.444 |
| NCI-H596 | 1 | 0.998 | 0.879 | 0.614 | 0.256 | 0.488 | 0.519 | 0.596 | 0.2 | 0.184 |  |  |  |  |  | 0.468 | 0.5 | 0.456 | 0.408 | 0.228 |
| NCI-H727 | 0.835 | 0.688 | 0.924 | 0.441 | 0.374 | 0.369 | 0.38 | 0.415 | 0.184 | 0.147 | 0.641 | 0.628 | 0.672 | 0.691 | 0.409 |  |  |  |  |  |
| NCI-H1299 | 1.04 | 1.02 | 1.03 | 0.719 | 0.328 |  |  |  |  |  |  |  |  |  |  |  |  |  |  |  |
| NCI-H1563 | 1.03 | 1.01 | 0.999 | 0.752 | 0.509 | 0.448 | 0.428 | 0.411 | 0.465 | 0.455 |  |  |  |  |  | 0.76 | 0.861 | 0.853 | 0.592 | 0.396 |
| NCI-H1623 | 0.956 | 1.13 | 1.01 | 0.843 | 0.542 | 0.537 | 0.572 | 0.565 | 0.52 | 0.262 |  |  |  |  |  |  |  |  |  |  |
| NCI-H1648 | 0.972 | 1.04 | 0.983 | 0.655 | 0.484 |  |  |  |  |  | 0.262 | 0.25 | 0.238 | 0.256 | 0.271 | 0.689 | 0.803 | 0.836 | 0.745 | 0.47 |
| NCI-H1703 | 0.825 | 0.912 | 0.575 | 0.19 | 0.135 |  |  |  |  |  |  |  |  |  |  |  |  |  |  |  |
